Some results are limits rather than exact numbers.

As a reminder, the ED50 is the dose at which the effect has come halfway, by size or by number of responders. In general, IC50 refers to the concentration that inhibits the measured activity by half.

Assay [1] has as its system Rattus norvegicus. Description: In vivo inhibitory activity against mescaline-induced head twitches of rat after pretreatment for 6 hours upon peroral administration. Type of assay: functional.
Assay [2] relates to Mus musculus. Description: In vivo inhibitory activity against DOI-induced head twitches of mice after pretreatment for 1 hour upon subcutaneous administration. It counts as functional.
In assay [3] the test system is Rattus norvegicus. As to the kind of experiment: In vivo inhibitory activity against mescaline-induced head twitches of rat after pretreatment for 16 hours upon peroral administration. Type of assay: functional.
Another assay has as its target Histamine H1 receptor (Homo sapiens, UniProt P35367). Description: Binding affinity towards histamine H1 receptor.
Assay [4] has as its system Rattus norvegicus. As to the kind of experiment: In vivo inhibitory activity against mescaline-induced head twitches of rat after pretreatment for 1 hour upon subcutaneous administration. It counts as functional.
Assay [5] has as its target T1, Adrenergic receptor alpha-1 (Homo sapiens, UniProt P35348+P25100+P35368).
T1 sequence (P35348 whole entry): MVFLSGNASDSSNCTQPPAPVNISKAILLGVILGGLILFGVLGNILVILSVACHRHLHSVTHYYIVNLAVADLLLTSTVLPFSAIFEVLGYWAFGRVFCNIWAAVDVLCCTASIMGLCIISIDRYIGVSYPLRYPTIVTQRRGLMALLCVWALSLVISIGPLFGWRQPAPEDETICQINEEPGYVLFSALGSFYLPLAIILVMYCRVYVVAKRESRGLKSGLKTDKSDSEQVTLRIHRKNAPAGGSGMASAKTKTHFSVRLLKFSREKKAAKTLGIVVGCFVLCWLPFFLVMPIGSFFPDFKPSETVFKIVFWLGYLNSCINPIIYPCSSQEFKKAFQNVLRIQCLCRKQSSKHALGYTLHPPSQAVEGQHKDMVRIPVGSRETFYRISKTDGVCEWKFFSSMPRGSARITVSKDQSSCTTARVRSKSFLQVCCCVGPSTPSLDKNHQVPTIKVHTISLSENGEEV
T1 sequence (P25100 whole entry): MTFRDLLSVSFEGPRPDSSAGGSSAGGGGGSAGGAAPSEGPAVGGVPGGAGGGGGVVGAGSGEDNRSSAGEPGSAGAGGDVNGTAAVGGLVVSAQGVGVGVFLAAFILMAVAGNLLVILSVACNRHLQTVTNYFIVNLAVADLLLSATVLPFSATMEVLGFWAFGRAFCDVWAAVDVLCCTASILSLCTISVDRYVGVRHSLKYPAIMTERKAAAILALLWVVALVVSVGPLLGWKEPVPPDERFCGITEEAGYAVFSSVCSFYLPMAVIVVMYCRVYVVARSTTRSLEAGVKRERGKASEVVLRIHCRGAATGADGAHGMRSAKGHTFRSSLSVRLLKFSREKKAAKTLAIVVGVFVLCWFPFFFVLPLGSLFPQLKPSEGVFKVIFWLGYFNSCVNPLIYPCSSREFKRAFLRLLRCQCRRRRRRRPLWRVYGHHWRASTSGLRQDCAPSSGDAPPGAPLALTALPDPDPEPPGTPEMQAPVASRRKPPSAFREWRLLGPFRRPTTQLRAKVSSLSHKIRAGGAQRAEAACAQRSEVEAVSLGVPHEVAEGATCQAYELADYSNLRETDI
T1 sequence (P35368 whole entry): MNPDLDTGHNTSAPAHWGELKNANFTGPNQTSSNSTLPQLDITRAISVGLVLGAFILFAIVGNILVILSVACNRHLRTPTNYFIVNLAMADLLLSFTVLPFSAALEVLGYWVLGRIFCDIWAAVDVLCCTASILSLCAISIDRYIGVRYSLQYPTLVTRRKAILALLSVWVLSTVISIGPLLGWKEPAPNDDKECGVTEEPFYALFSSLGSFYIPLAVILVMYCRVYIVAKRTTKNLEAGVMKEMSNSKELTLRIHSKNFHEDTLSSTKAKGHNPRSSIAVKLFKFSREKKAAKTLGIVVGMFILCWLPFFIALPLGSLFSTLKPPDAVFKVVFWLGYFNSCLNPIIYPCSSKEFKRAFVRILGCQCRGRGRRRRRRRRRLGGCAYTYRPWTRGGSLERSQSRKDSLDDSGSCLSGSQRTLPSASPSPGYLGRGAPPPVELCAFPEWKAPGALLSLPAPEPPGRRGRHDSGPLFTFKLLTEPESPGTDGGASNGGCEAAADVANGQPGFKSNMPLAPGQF
Description: Binding affinity towards Alpha-1 adrenergic receptor. Type of assay: protein assay.

The target in assay [6] is 5-hydroxytryptamine receptor 2A (Rattus norvegicus, UniProt P14842). As to the kind of experiment: In vitro binding affinity towards serotonin 5-HT2A receptor in rat cortical membranes using [3H]ketanserin as radioligand. Type of assay: cell membranes.
The target of another assay is D(2) dopamine receptor (Homo sapiens, UniProt P14416). Description: Binding affinity towards dopamine D2 receptor.
For assay [7], the system named is Mus musculus. Description: In vivo inhibitory activity against DOI-induced head twitches of mice after pretreatment for 15 hours upon peroral administration. Type of assay: functional.
The subject of assay [8] is Mus musculus. As to the kind of experiment: In vivo inhibitory activity against mescaline-induced head twitches of mice after pretreatment for 15 hours upon peroral administration. Type of assay: functional. Particulars: po.
Assay [9] relates to Rattus norvegicus. As to the kind of experiment: In vivo inhibitory activity against mescaline-induced head twitches of rat after pretreatment for 1 hour upon peroral administration. Type of assay: functional.
Assay [10] relates to Mus musculus. As to the kind of experiment: In vivo inhibitory activity against mescaline-induced head twitches of mice after pretreatment for 1 hour upon subcutaneous administration. Particulars: sc. Type of assay: functional.
Assay [11] addresses T2, Muscarinic acetylcholine receptor M4 (Homo sapiens, UniProt P08173).
T2 sequence (P08173 whole entry): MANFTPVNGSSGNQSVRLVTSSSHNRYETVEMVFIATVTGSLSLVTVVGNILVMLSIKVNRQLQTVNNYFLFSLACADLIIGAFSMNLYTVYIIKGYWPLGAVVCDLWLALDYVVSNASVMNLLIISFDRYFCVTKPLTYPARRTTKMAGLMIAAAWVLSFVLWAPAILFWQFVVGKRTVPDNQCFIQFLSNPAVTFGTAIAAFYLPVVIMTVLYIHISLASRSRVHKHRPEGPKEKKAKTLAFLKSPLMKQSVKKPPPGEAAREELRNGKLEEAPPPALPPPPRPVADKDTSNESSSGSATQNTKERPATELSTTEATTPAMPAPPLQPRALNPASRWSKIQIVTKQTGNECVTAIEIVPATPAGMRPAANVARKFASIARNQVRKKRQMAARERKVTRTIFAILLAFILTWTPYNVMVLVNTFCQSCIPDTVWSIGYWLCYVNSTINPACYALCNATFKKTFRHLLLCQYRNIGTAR
As to the kind of experiment: Binding affinity towards muscarinic receptor.

The mark [12] stands for this setting: Rattus norvegicus, po, read-out: ED50.

Chain of 5-hydroxytryptamine receptor 2A (P14842 whole entry): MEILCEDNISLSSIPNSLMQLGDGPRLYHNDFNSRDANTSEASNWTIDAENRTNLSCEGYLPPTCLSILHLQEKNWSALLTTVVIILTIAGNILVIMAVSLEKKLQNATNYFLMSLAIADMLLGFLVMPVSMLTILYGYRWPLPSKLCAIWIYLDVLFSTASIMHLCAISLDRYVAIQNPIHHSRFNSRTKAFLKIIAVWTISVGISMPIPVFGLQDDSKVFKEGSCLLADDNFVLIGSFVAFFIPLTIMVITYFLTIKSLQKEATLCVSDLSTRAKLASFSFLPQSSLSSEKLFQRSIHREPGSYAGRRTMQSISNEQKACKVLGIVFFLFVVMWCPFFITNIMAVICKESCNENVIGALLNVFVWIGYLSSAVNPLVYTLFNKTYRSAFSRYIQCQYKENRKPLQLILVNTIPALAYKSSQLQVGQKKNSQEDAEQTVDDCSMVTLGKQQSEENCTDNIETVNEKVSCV
Chain of D(2) dopamine receptor (P14416 whole entry): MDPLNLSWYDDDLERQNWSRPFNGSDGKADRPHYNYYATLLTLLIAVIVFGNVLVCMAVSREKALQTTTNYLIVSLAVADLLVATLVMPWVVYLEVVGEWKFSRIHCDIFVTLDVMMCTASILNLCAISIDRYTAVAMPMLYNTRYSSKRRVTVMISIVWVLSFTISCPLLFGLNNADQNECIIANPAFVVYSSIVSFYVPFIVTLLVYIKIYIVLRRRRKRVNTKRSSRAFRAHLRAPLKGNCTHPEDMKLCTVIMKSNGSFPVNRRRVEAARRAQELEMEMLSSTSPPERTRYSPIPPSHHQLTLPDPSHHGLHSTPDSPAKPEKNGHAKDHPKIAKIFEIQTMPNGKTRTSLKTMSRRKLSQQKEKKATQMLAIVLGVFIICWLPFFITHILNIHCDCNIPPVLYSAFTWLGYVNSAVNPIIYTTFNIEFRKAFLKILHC
Chain of Histamine H1 receptor (P35367 whole entry): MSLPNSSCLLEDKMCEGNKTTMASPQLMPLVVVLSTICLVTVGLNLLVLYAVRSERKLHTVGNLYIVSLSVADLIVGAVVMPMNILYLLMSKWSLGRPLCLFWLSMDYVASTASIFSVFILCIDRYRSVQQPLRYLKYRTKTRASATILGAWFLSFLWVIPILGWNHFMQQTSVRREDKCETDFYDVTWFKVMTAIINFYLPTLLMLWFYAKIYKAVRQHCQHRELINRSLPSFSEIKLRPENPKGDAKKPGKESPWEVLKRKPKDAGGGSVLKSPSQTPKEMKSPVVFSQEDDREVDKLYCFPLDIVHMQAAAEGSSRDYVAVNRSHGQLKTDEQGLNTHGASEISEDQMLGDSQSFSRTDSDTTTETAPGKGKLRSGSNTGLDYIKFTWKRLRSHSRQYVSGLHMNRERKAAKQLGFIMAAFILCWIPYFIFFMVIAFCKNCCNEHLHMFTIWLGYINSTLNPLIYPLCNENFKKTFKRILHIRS

Take `Fc1ccc([Si]2(c3ccc(F)cc3)CCC(N3CCN(c4ccccc4)CC3)C2)cc1` (racemic): the ED50 turned out to be 0.48 mg/kg in the assay with Rattus norvegicus [1]; 0.73 mg/kg in the assay on Mus musculus [2]; 1.25 mg/kg in the assay with Rattus norvegicus [3]; 10 mg/kg with Rattus norvegicus [4]; 0.59 mg/kg with Mus musculus [7]; 0.44 mg/kg in the assay on Mus musculus [8]. In addition, the median effective dose (ED50) was 1.93 mg/kg with Rattus norvegicus [9] and 1.38 mg/kg in the assay with Mus musculus [10]. Moreover, the IC50 on Histamine H1 receptor is more than 1000 nM; in assay [5], 86 nM; in [6] it was 2 nM; at D(2) dopamine receptor it was 140 nM; in assay [11], more than 1000 nM.

For `Fc1ccc([Si]2(c3ccc(F)cc3)CCC(N3CCN(c4ccccc4)CC3)C2)cc1` (single isomer, unassigned; (-)), the ED50 was more than 5 mg/kg with Mus musculus [2], 10.25 mg/kg in the assay with Rattus norvegicus [4], 10.5 mg/kg with Mus musculus [7] and 10.25 mg/kg with Rattus norvegicus [9]. The molecule also registered an IC50 in [6] of 25 nM.

Regarding `c1ccc(N2CCN(C3CC[Si](c4ccccc4)(c4ccccc4)C3)CC2)cc1` (stereo unspecified), the IC50 in assay [6] stood at 1 nM. For the same molecule, the figures for the ED50 in the assay on Mus musculus [8], in the assay on Rattus norvegicus [9] (setting [12]) and in the assay with Mus musculus [10] were 45 mg/kg, 84 mg/kg and 68 mg/kg, respectively.

`Fc1cccc(N2CCN(C3CC[Si](c4ccccc4)(c4ccccc4)C3)CC2)c1` (stereo unspecified) gave an IC50 in [6] of 3.4 nM.

For the molecule `Cc1nc2sccn2c(=O)c1CCN1CCC(=C(c2ccc(F)cc2)c2ccc(F)cc2)CC1` [RITANSERIN], the ED50 worked out at 0.05 mg/kg with Mus musculus [2] (Mus musculus, sc, read-out: ED50); 18.1 mg/kg in the assay with Rattus norvegicus [3] (setting [12]); 0.38 mg/kg with Rattus norvegicus [4] (Rattus norvegicus, sc, read-out: ED50); 0.08 mg/kg in the assay with Mus musculus [7] (Mus musculus, po, read-out: ED50); 0.09 mg/kg in the assay with Mus musculus [8]; 0.29 mg/kg with Mus musculus [10].

For `Fc1ccc([Si]2(c3ccc(F)cc3)CCC(N3CCN(c4ccccc4)CC3)C2)cc1` (single isomer, unassigned; (+)), the ED50 in the assay with Rattus norvegicus [1] (setting [12]) is less than 0.63 mg/kg; with Mus musculus [2], 0.59 mg/kg; in the assay on Rattus norvegicus [3] (setting [12]) it was less than 2.5 mg/kg; in the assay on Rattus norvegicus [4] it was 1.56 mg/kg; with Mus musculus [7] it was 0.62 mg/kg; in the assay with Rattus norvegicus [9], 2.03 mg/kg. In addition, the IC50 on Histamine H1 receptor is more than 1000 nM; in assay [5], 100 nM; in [6], 3 nM; at D(2) dopamine receptor, 100 nM; in [11], more than 1000 nM.

In the case of `Cc1cccc(N2CCN(C3CC[Si](c4ccccc4)(c4ccccc4)C3)CC2)c1` (stereo unspecified), the IC50 in [6] is 33 nM. This lies in the double-digit nanomolar range.

For the molecule `c1ccc([Si]2(c3ccccc3)CCC(N3CCN(c4ccccn4)CC3)C2)cc1` (stereo unspecified), the IC50 in assay [6] was found to be 29 nM. The IC50 values of the last two molecules are within 1.5-fold of each other.

Consider `Fc1ccc([Si]2(c3ccccc3)CCC(N3CCN(c4ccccc4)CC3)C2)cc1` (stereo in doubt), for which the IC50 in assay [6] was 27 nM.

With `Oc1ccc(N2CCN(C3CC[Si](c4ccccc4)(c4ccccc4)C3)CC2)cc1` (stereo unspecified), the IC50 in [6] turned out to be 46 nM. Compared with the last molecule, the IC50 is about 1.7-fold higher.

Regarding `c1ccc([Si]2(c3ccccc3)CCC(N3CCN(c4ncccn4)CC3)C2)cc1` (stereo unspecified), the IC50 in [6] was 80 nM.

In turn, `Fc1ccc([Si]2(c3ccccc3)CCC(N3CCN(c4ccccc4)CC3)C2)cc1` (single isomer, unassigned) came in with an IC50 in [6] of 20 nM. Against the preceding molecule, the IC50 is about 4-fold lower.

For the molecule `Clc1ccc(N2CCN(C3CC[Si](c4ccccc4)(c4ccccc4)C3)CC2)cc1` (stereo unspecified), the IC50 in assay [6] was 25 nM.

Turning to `Fc1ccc(C2=CCN(C3CC[Si](c4ccccc4)(c4ccccc4)C3)CC2)cc1` (stereo unspecified), the IC50 in [6] worked out at 14 nM.

In assay [6], `Cc1ccc(N2CCN(C3CC[Si](c4ccccc4)(c4ccccc4)C3)CC2)cc1` (stereo unspecified) gave an IC50 of 10 nM.

`Fc1ccc([Si]2(c3ccc(F)cc3)CCC(N3CCN(c4ccccc4)CC3)C2)cc1` (stereo in doubt) came in with an IC50 in assay [6] of 16 nM.

For `c1ccc(C2CCN(C3CC[Si](c4ccccc4)(c4ccccc4)C3)CC2)cc1` (stereo unspecified), the IC50 in assay [6] was 53 nM.

As to `Fc1ccc(N2CCN(C3CC[Si](c4ccc(F)cc4)(c4ccc(F)cc4)C3)CC2)cc1` (stereo unspecified), in [6], the IC50 worked out at 18 nM.

`Fc1ccccc1N1CCN(C2CC[Si](c3ccccc3)(c3ccccc3)C2)CC1` (stereo unspecified) registered an IC50 in assay [6] of 100 nM.

Take `Fc1ccc(N2CCN(C3CC[Si](c4ccccc4)(c4ccccc4)C3)CC2)cc1` (stereo unspecified): the IC50 in assay [6] worked out at 0.9 nM. Also, the values for the ED50 in the assay with Mus musculus [8] and in the assay on Mus musculus [10] were 15 mg/kg and 10 mg/kg, respectively.

(Values after ChEMBL document CHEMBL1127235, “1,1-diphenyl-3-dialkylamino-1-silacyclopentane derivatives: A new class of potent and selective 5-HT2A antagonists” (Bioorg Med Chem Lett, 1994).)
